Assay [1] addresses T1, hDDX41 DEAD domain (Homo sapiens, UniProt Q9UJV9).
T1 construct: gene DDX41; isolated DEAD domain (domain 1; motifs Q to III); monomer; full length is 1-622
Put plainly: thermal shift assay. Type of assay: binding. As to conditions: unliganded Tm 41 °C.

Assay [2] concerns the target T1, hDDX41 DEAD domain. The experiment in a line: isothermal titration calorimetry. To be noted: read-out: binding affinity. (In general: In ITC the heat of successive injections is recorded.)

T1 sequence (Q9UJV9 155-407 limits assumed): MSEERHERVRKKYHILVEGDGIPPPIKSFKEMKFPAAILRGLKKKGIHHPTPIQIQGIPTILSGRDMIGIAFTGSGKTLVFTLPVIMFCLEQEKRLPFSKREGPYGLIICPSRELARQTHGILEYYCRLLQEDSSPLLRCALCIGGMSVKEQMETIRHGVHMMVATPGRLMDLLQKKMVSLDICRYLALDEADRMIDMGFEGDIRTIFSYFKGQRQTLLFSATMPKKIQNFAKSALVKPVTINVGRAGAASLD

Take `Nc1ncnc2c1ncn2[C@@H]1O[C@H](COP(=O)(O)OP(=O)(O)O)[C@@H](O)[C@H]1O` [ADP]: the Tm increase in assay [1] was found to be 2.2 °C. In addition, the Kd in assay [2] was found to be 31 µM.

`Nc1ncnc2c1ncn2[C@@H]1O[C@H](COP(=O)(O)O)[C@@H](O)[C@H]1O` [AMP]: the Tm increase in assay [1] is 3.9 °C. In assay [2], the Kd worked out at 61 µM.
